In US7390783B2, “Charged phospholipid compositions and methods for their use” (Ottawa Heart Institute Research Corporation, priority 2000, dated 2008):

Columns and labels:
[1] = test system: VLDL, LDL and HDL in human plasma; assay: Lipoprotein charge in human plasma incubated with PI or DOTAP vesicles; format: biochemical; conditions: 24 h at 4° C.; for Lipoprotein Surface Charge LDL: no lipid 2.5; for Lipoprotein Surface Charge VLDL: no lipid 5.5; for Lipoprotein Surface Charge HDL: no lipid 11.8
Method: Different concentrations as shown below of negatively charged phospholipid (PI) or positively charged phospholipid (DOTAP) were added to human plasma and the surface charge on the lipoproteins was determined. The human plasma was incubated with PI or dioleoyl trimethylammonium-propane (DOTAP) vesicles for 24 h at 4° C. and then electrophoresed on 0.5% agarose. Lipoprotein charge was calculated from electrokinetic analyses.

[2] = test system: cholesterol associated with HDL, LDL and VLDL; assay: Incubation of plasma with PI: lipoprotein cholesterol levels; format: biochemical, human; conditions: added to blood plasma of fasted normolipidemic subject
Method: Referring now to FIG. 2, there is graphically depicted the effect of incubations with PI on the amount of cholesterol associated with HDL (high density lipoprotein), LDL (low density lipoprotein) and VLDL (very low density lipoproteins) following isolation of lipoproteins from plasma of fasted normolipidemic subjects. […] This appears due to the electrostatic effects, that increased lipoprotein PI concentrations have on cholesteryl ester transfer protein. Previous work has shown that this protein controls interlipoprotein cholesterol transfers and is affected by lipoprotein charge (Lagrost 1997).

[3] = test system: lipoprotein CE and FC in whole blood (red blood cells); assay: Incubation of whole blood with PC or PI vesicles: lipoprotein CE and FC; format: cell-based, human
Method: Referring now to FIG. 4, there is graphically depicted the effect of PI or PC vesicles on lipoprotein CE and FC. Incubation of whole blood with PC vesicles results in a 60% increase in the CE content of the lipoproteins, while FC content is reduced by about 10%. […] Negatively charged phospholipids appeared to promote a reciprocal exchange of CE for FC between red blood cells and the lipoprotein particles. […] It has previously been taught that red blood cells cannot store CE and therefore utilize a membrane-bound CE hydrolase to maintain membrane FC levels. Without wishing to be bound by theory, the results therefore indicate that PI stimulates the degradation of lipoprotein CE.

lipoprotein lipase = target: T1, lipoprotein lipase (Homo sapiens, UniProt P06858); assay: Lipid hydrolysis by lipoprotein lipase in plasma enriched with charged lipid; format: biochemical; conditions: not shown
T1 sequence (P06858 28-475): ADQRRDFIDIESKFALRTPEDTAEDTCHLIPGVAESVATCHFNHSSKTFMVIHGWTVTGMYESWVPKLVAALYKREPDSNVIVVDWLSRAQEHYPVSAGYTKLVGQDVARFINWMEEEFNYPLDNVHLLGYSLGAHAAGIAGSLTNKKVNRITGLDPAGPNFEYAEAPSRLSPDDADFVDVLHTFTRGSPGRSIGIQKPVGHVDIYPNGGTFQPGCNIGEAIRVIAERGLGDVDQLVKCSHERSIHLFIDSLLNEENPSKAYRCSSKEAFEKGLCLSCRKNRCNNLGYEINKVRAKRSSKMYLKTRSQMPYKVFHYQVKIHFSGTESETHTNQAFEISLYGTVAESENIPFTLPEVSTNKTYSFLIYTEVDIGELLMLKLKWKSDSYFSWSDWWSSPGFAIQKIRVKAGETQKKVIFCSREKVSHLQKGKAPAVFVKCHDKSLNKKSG
From the text: Referring now to FIG. 10, there is shown the effect of lipoprotein charge on hepatic lipase. High density lipoprotein particles were enriched to contain various amounts of anionic or cationic lipids and then characterized as substrates for pure human hepatic lipase. Decreasing the net negative charge on the lipoprotein was associated with a reduction in the lipolytic activity of is hepatic lipase. Lipoprotein charge can also be used to regulate lipoprotein lipase. […] Lipid hydrolysis by hepatic or lipoprotein lipase can therefore be affected by alterations in the charge properties of plasma lipoproteins.

[4] = test system: faecal cholesterol output; assay: Faecal cholesterol excretion after PI or PC injection; format: in vivo, rabbit
Method: Rabbits are injected with 40 μmol PI or PC vesicles containing 400 μCi […]. Animals are sacrificed at 30 min, and bile is aspirated from the gall bladder. In addition the livers are harvested, homogenized and tissue radioactivity determined. Sterol excretion in the faeces is measured similarly except that faecal cholesterol levels are measured over a time period of 96 hours. Referring now to FIG. 7, there is graphically depicted the effect of PI injection associated with sterol excretion. […] PC injection into a rabbit had no effect on cholesterol excretion, while PI injection enhanced faecal cholesterol output by about 300% at 2 days post injection. The increase in cholesterol output returned to normal by about day 4.

cytomegalovirus (CMV) = assay: Clearance of cytomegalovirus from the plasma of a rabbit; format: in vivo; conditions: 36 mg vesicles; blood sample 10 minutes post injection
Method: Rabbits were injected with 8×10^10 cytomegalovirus (CMV) particles and then with 36 mg of either uncharged vesicles, phosphatidylcholine (PC), or anionic vesicles, phosphatidylinositol (PI). Blood samples were taken at specific intervals and the amount of virus in the blood samples was determined by immunometric analysis.

[5] = PI mass measurements in HDL after injection of PI vesicles; format: in vivo, rabbit
From the text: The clearance of PI from the different lipoproteins may have been due to either a lipoprotein-cellular transfer or to a selective hydrolysis by a charged phospholipid specific phospholipase.

biliary FC output = assay: Biliary FC output after injection of PI or PC vesicles containing [^3H]-FC; format: in vivo, rabbit; conditions: sacrificed at 30 min
Method: Rabbits are injected with 40 μmol PI or PC vesicles containing 400 μCi […]. Animals are sacrificed at 30 min, and bile is aspirated from the gall bladder. In addition the livers are harvested, homogenized and tissue radioactivity determined. Sterol excretion in the faeces is measured similarly except that faecal cholesterol levels are measured over a time period of 96 hours.
Referring now to FIG. 6, there is shown the effect of PI on biliary FC output after rabbits are injected with PI or PC vesicles containing [^3H]-FC. […] Without wishing to be bound by theory, PI may enhance the clearance of cholesterol from plasma and promote its uptake and accumulation in the liver. In addition, PI injection appears to be associated with an increase output of cholesterol into bile. About 20-fold enhanced output of cholesterol into bile is observed (FIG. 6).

effect on lipid hydrolysis by lipoprotein lipase (lipoprotein lipase): stimulate lipid hydrolysis
level of PI in HDL, of the total HDL-PL ([5]; after 10 min, initially below detection levels): up to 30%
HDL-PI content, of the HDL-PL ([5]; by 3 h): 5-10%
Compound: CCCCCCCC/C=C\CCCCCCCC(=O)O[C@H](COC(=O)CCCCCCCCCCCCCCC)COP(=O)(O)O[C@@H]1[C@H](O)[C@H](O)[C@@H](O)[C@H](O)[C@H]1O [PI, 1-palmitoyl-2-oleoyl phosphatidylinositol]
Lipoprotein Surface Charge LDL ([1]; 5 mg/ml): 2.9 -mV
Lipoprotein Surface Charge VLDL ([1]; 5 mg/ml): 6.3 -mV
Lipoprotein Surface Charge HDL ([1]; 5 mg/ml): 12.4 -mV
Lipoprotein Surface Charge LDL ([1]; 10 mg/ml): 3.3 -mV
Lipoprotein Surface Charge VLDL ([1]; 10 mg/ml): 6.8 -mV
Lipoprotein Surface Charge HDL ([1]; 10 mg/ml): 12.8 -mV
Lipoprotein Surface Charge LDL ([1]; 50 mg/ml): 3.4 -mV
Lipoprotein Surface Charge VLDL ([1]; 50 mg/ml): 6.9 -mV
Lipoprotein Surface Charge HDL ([1]; 50 mg/ml): 13.2 -mV
Lipoprotein Surface Charge LDL ([1]; 100 mg/ml): 3.6 -mV
Lipoprotein Surface Charge VLDL ([1]; 100 mg/ml): 7.1 -mV
Lipoprotein Surface Charge HDL ([1]; 100 mg/ml): 13.4 -mV
effect on cholesterol in LDL, VLDL and HDL [2]: reduction of cholesterol in LDL and VLDL and increase in HDL cholesterol levels
increase of lipoprotein FC levels [3]: about 40%
reduction of lipoprotein CE [3]: about 40%
faecal cholesterol output enhanced by ([4]; 2 days post injection): about 300%
increase in cholesterol output returned to normal by ([4]; rabbit, in vivo): ~4 days
increased rate of clearance of the CMV injectate relative to PC (cytomegalovirus (CMV)): 1.7 fold
[^3H]-FC in plasma and liver in comparison to PC (biliary FC output): reduction of [^3H]-FC in plasma, and an elevation of [^3H]-FC in the liver
enhanced output of cholesterol into bile (biliary FC output; in comparison to PC): About 20 fold
